Measured values published in US4839374A, “4-((Bicyclic heterocyclyl)-methyl and -hetero)-piperidines” (Janssen Pharmaceutica, N.V., priority 1987, dated 1989).
Read-outs that look alike come from different tables or passages of the source.

Assays:
[1] = test system: effects of serotonin; experiment: Antagonistic activity on the effects of serotonin in the gastric lesion test (lesions induced by compound 48/80); type: in vivo, rats of a Wistar inbred strain; conditions: Rattus norvegicus, po, read-out: gastric lesion test ED50
Description: Antagonistic activity on the effects of serotonin in the gastric lesion test.
The shock, followed by dead, can be avoided if the rats are pretreated with a classical H 1 antagonist.
Male rats of a Wistar inbred strain, weighing 220-250 g, were starved overnight, water being available ad libitum. The test compounds were administered orally as a solution or as a suspension in aqueous medium. A control rat and a "blank" rat received the test compound. One hour later 5-[4-(diphenylmethyl)1-piperazinylmethyl]-1-methyl-1H-benzimidazole-2-methanol was administered subcutaneously to all rats at the dose of 2.5 mg/kg. […] Four hours after the intravenous injection of compound 48/80, the rats were decapitated and the stomachs were removed. Subsequently the stomachs were inspected for distension and contents (blood, fluid, food) and thoroughly rinsed. The macroscopic lesions were scored from 0 to +++, 0 corresponding to complete absence of visible lesions and the highest score corresponding to reddish rough patches covering more than half the glandular area.
The second column of tables 1-4 show for a number of compounds of formula (I) the doses (in mg/kg body weight) at which the distension of the stomach as well as the lesions in the glandular area of the stomach are completely absent in 50% of the test rats (ED50 -value).

[2] = test system: compound 48/80-induced lethality; experiment: Protection of rats from compound 48/80-induced lethality; type: in vivo, rats of an inbred Wistar strain; conditions: Rattus norvegicus, 4 h, read-out: Compound 48/80 lethality test in rats ED50, s.c. or p.o. 1 h before compound 48/80 0.5 mg/kg i.v.; protection of 50% of animals, survival after 4 hours
Procedure, shortened: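 Male inbred Wistar rats (240-260 g), starved overnight, dosed subcutaneously or orally with compound or 0.9% NaCl before compound 48/80 challenge. Survival at 4 hours counted as protection. ED50 in mg/kg is the dose protecting 50% of animals from lethality.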

[3] = compound 48/80 1 mg/kg i.v., distension and lesions of stomach completely absent in 50% of rats

| SMILES | ED50 [1] [mg/kg] | ED50 [2] [mg/kg] | ED50 [1, 3] [mg/kg] |
| --- | --- | --- | --- |
| Fc1ccc(Cn2c(CC3CCN(CCNc4nc5cnccc5s4)CC3)nc3ccccc32)cc1 [Compound 332, N-[2-[4-[[1-[(4-fluorophenyl)methyl]-1H-benzimidazol-2-yl]methyl]-1-piperidinyl]ethyl]thiazolo[4,5-c]pyridin-2-amine] | 0.08 | 0.08 |  |
| Cc1nc2c(NCCN3CCC(Cc4nc5ccccc5n4Cc4ccc(F)cc4)CC3)ncnc2n1C [Compound 372] |  | 0.04 | 0.16 |
| Fc1ccc(Cn2c(CC3CCN(CCNc4ncc[nH]4)CC3)nc3ccccc32)cc1 [Compound 453, 4-[[1-[(4-fluorophenyl)methyl]-1H-benzimidazol-2-yl]methyl]-N-(1H-imidazol-2-yl)-1-piperidineethanamine] |  | 0.04 | 0.02 |
| O=c1c2ccccc2[nH]c(=S)n1CCN1CCC(Cc2nc3ccccc3n2Cc2ccco2)CC1 [Compound 461, 3-[2-[4-[[1-(2-furanylmethyl)-1H-benzimidazol-2-yl]methyl]-1-piperidinyl]ethyl]-2,3-dihydro-2-thioxo-4(1H)-quinazolinone] | 0.08 | 0.08 |  |
| Fc1ccc(Cn2c(CC3CCN(CCNc4nnc(Cl)c5ccccc45)CC3)nc3ccccc32)cc1 [Compound 381, 4-chloro-N-[2-[4-[[1-[(4-fluorophenyl)methyl]-1H-benzimidazol-2-yl]methyl]-1-piperidinyl]ethyl]-1-phthalazinamine] |  | 0.08 | 0.16 |
| Nc1ccccc1C(=O)NCCN1CCC(Cc2nc3ccccc3n2Cc2cccs2)CC1 [Compound 478, 2-amino-N-[2-[4-[[1-(2-thienylmethyl)-1H-benzimidazol-2-yl]methyl]-1-piperidinyl]ethyl]benzamide] | 0.04 | 0.02 |  |
| Fc1ccc(Cn2c(CC3CCN(CCNc4ccccn4)CC3)nc3ccccc32)cc1 [Compound 499] |  | 0.04 | 0.01 |
| Fc1ccc(Cn2c(CC3CCN(CCn4c(=S)[nH]c5ccccc54)CC3)nc3ccccc32)cc1 [Compound 493, 1-[2-[4-[[1-[(4-fluorophenyl)methyl]-1H-benzimidazol-2-yl]methyl]-1-piperidinyl]ethyl]-1,3-dihydro-2H-benzimidazole-2-thione] | 0.04 | 0.08 |  |
| O=C(NCCN1CCC(Cc2nc3ccccc3n2Cc2ccc(F)cc2)CC1)C(=O)c1cccs1 [Compound 439, N[2-[;b 4-[[1-[(4-fluorophenyl)methyl]-1H-benzimidazol-2-yl]methyl]-1-piperidinyl]ethyl]-α-oxo-2-thiopheneacetamide] |  | 0.16 | 0.31 |
| CC(C)NC(=O)CN1CCC(Cc2nc3cccnc3n2Cc2ccc(F)cc2)CC1 [Compound 128] |  | 0.16 | 0.63 |
| c1cnc(NCCN2CCC(Cc3nc4cccnc4n3Cc3cccs3)CC2)nc1 [Compound 342] |  | 0.02 | 0.16 |
| c1cnc(OCCN2CCC(Cc3nc4ccccc4n3Cc3ccco3)CC2)nc1 [Compound 392, 1-(2-furanylmethyl)-2-[[1-[2-(2-pyrimidinyloxy)ethyl]-4-piperidinyl]methyl]-1H-benzimidazole] |  | 0.02 | 0.63 |
| Fc1ccc(Cn2c(CC3CCN(CCc4ccccn4)CC3)nc3cccnc32)cc1 [Compound 101] |  | 0.02 | 0.31 |
| Cc1cc(NCCN2CCC(Cc3nc4ccccc4n3Cc3ccc(F)cc3)CC2)nc(Cl)n1 [Compound 383, 2-chloro-N-[2-[4-[[1-[(4-fluorophenyl)methyl]-1H-benzimidazol-2-yl]methyl]-1-piperidinyl]ethyl]-6-methyl-4-pyrimidinamine] |  | 0.04 | 0.16 |
| c1csc(Cn2c(CC3CCN(CCNc4nc5cnccc5[nH]4)CC3)nc3ccccc32)c1 [Compound 416, N-[2-[4-[[1-(2-thienylmethyl)-1H-benzimidazol-2-yl]methyl]-1-piperidinyl]ethyl]-1H-imidazo[4,5-c]pyridin-2-amine] | 0.04 | 0.04 |  |
| O=c1cc[nH]c(=O)n1CCN1CCC(Cc2nc3ccccc3n2Cc2ccc(F)cc2)CC1 [Compound 164] |  | 0.02 | 0.02 |
| COc1ccc(CCN2CCC(Cc3nc4cccnc4n3Cc3ccc(F)cc3)CC2)cc1 [Compound 236] |  | 0.08 | 0.63 |
| Fc1ccc(Cn2c(CC3CCN(Cc4cn5ccccc5n4)CC3)nc3ccccc32)cc1 [Compound 184] |  | 0.02 | 0.63 |
| Cc1ncsc1CCN1CCC(Cc2nc3ccccc3n2Cc2ccc(F)cc2)CC1 [Compound 182] |  | 0.04 | 0.63 |
| c1coc(Cn2c(CC3CCN(CCNc4nccs4)CC3)nc3ccccc32)c1 [Compound 335] |  | 0.02 | 0.16 |
| Fc1ccc(Cn2c(CC3CCN(CCNc4ncccn4)CC3)nc3ccncc32)cc1 [Compound 351, N-[2-[4-[[3-[(4-fluorophenyl)methyl]-3H-imidazo[4,5-c]pyridin-2-yl]methyl]-1-piperdinyl]-ethyl]-2-pyrimidinamine] | 0.08 | 0.02 |  |

| SMILES | ED50 [1] [mg/kg] | ED50 [2] [mg/kg] | ED50 [1, 3] [mg/kg] |
| --- | --- | --- | --- |
| O=C(NCCN1CCC(Cc2nc3cccnc3n2Cc2ccc(F)cc2)CC1)c1ccoc1 [Compound 432] |  | 0.04 | 0.31 |
| O=c1[nH]c2ccccc2c(=O)n1CCN1CCC(Cc2nc3cccnc3n2Cc2ccc(F)cc2)CC1 [Compound 224] | 0.08 | 0.04 |  |
| CCOCCN1CCC(Cc2nc3ccccc3n2Cc2ccc(F)cc2)CC1 [Compound 133] |  | 0.02 | 0.16 |
| Cc1nc2ccccn2c(=O)c1CCN1CCC(Cc2nc3cccnc3n2Cc2ccc(F)cc2)CC1 [Compound 177] |  | 0.04 | 0.31 |
| O=c1[nH]c2ccccc2n1CCCN1CCC(Cc2nc3ccccc3n2Cc2ccc(F)cc2)CC1 [Compound 207] | 0.08 | 0.08 |  |
| CN(C)C(=O)NCCN1CCC(Cc2nc3cccnc3n2Cc2ccc(F)cc2)CC1 [Compound 448, N'-[2-[4-[[3-[(4-fluorophenyl)methyl]-3H-imidazo[4,5-b]pyridin-2-yl]methyl]-1-piperidinyl]ethyl]-N,N-dimethylurea] |  | 0.08 | 0.16 |
| Cc1nc2ccccn2c(=O)c1CCN1CCC(Cc2nc3ncccc3n2Cc2ccc(F)cc2)CC1 [Compound 272] |  | 0.08 | 0.63 |
| Cc1nc2scc(C)n2c(=O)c1CCN1CCC(Cc2nc3cccnc3n2Cc2ccco2)CC1 [Compound 151, 6-[2-[4-[[3-(2-furanylmethyl)-3H-imidazo[4,5-b]pyridin-2-yl]methyl]-1-piperidinyl]ethyl]-3,7-dimethyl-5H-thiazolo[3,2-a]pyrimidin-5-one] |  | 0.02 | 0.16 |
| COc1ccc(CCN2CCC(Cc3nc4ccc(OC)cc4n3Cc3ccc(F)cc3)CC2)cc1 [Compound 273] |  | 0.01 | 0.31 |
| Fc1ccc(Cn2c(CC3CCN(CCN4CCOCC4)CC3)nc3cccnc32)cc1 [Compound 124] |  | 0.04 | 0.31 |
| Cn1c(O)nc2c(NCCN3CCC(Cc4nc5ccccc5n4Cc4ccc(F)cc4)CC3)ncnc21 [Compound 371] |  | 0.16 | 0.63 |
| Cc1nc2ccccn2c(=O)c1CCN1CCC(Sc2nc3ccccc3n2Cc2ccc(F)cc2)CC1 [Compound 244, 3-[2-[4-[[1-[(4-fluorophenyl)methyl]-1H-benzimidazol-2-yl]thio]-1-piperidinyl]-ethyl]-2-methyl-4H-pyrido[1,2-a]pyrimidin-4-one] |  | 0.16 | 0.31 |
| c1ccc(Cn2c(CC3CCN(CCNc4nccs4)CC3)nc3cccnc32)cc1 [Compound 362] |  | 0.08 | 0.63 |
| Fc1ccc(Cn2c(CC3CCN(CCc4cccs4)CC3)nc3ccccc32)cc1 [Compound 118, 1-[(4-fluorophenyl)methyl]-2-[[1-[2-(2-thienyl)ethyl]-4-piperidinyl]-methyl]-1H-benzimidazole] |  | 0.04 | 0.63 |
| O=c1[nH]c2ccccc2c(=O)n1CCN1CCC(Cc2nc3ccccc3n2Cc2cscn2)CC1 [Compound 187] |  | 0.04 | 0.31 |
| Cc1nc2scc(C)n2c(=O)c1CCN1CCC(Cc2nc3ccccc3n2Cc2ccc(F)cc2)CC1 [Compound 219] |  | 0.08 | 0.63 |
| CN1CCC(Cc2nc3cccnc3n2Cc2ccc(F)cc2)CC1 [Compound 90] |  | 0.01 | 0.31 |
| COc1ncccc1C(=O)NCCN1CCC(Cc2nc3ccccc3n2Cc2ccc(F)cc2)CC1 [Compound 438, N-[2-[4-[[1-[(4-fluorophenyl)methyl]-1H-benzimidazol-2-yl]methyl]-1-piperidinyl]ethyl]-2-methoxy-3-pyridinecarboxamide] |  | 0.08 | 0.16 |
| c1csc(Cn2c(CC3CCN(CCNc4nccs4)CC3)nc3ccccc32)c1 [Compound 356] | 0.08 | 0.02 |  |
| S=C=NCCN1CCC(Cc2nc3ccccc3n2Cc2cccs2)CC1 [Compound 397] | 0.04 | 0.04 |  |
